Laboratory results: ChEMBL document CHEMBL1148388, “Restriction of a peptide turn conformation and conformational analysis of guanidino group using arginine-proline fused amino acids: application to mini atrial natriuretic peptide on binding to the receptor” (J Med Chem, 2004)
Numbered stars: 1 amine (or outer) side, 2 acyl side, 3 side chain; on linkers, the order of the positions; unused ones are H or OH. Bridge positions count the residues as written; N and C are the ends. Square brackets hold non-standard residues; d marks the D form. Peptide text beside a SMILES is read from it. X2 = NC(N)=NCC[C@@H]1C[C@@H](C(=O)[*:2])N([*:1])C1; X1 = NC(N)=NCC[C@H]1C[C@@H](C(=O)[*:2])N([*:1])C1

What was measured:
[1] = Effective concentration required for production of cGMP in Chinese hamster ovary cells expressing natriuretic peptide receptor A (NPR-A); assay type: functional, cell-based
[2] = Relative biological activity was measured as EC50 analogue/ EC50 miniANP; assay type: functional

CC[C@H](C)[C@@H]1NC(=O)[C@H](CCCN=C(N)N)NC(=O)[C@H](CC(=O)O)NC(=O)[C@H](CCSC)NC(=O)[C@H](C)NC(=O)CNC(=O)CNC(=O)[C@H](Cc2ccccc2)NC(=O)[C@H](Cc2c[nH]cn2)NC(=O)[C@@H](NC(=O)[C@@H](N)CCSC)CSSC[C@@H](C(=O)N[C@@H](Cc2ccc(O)cc2)C(=O)N[C@@H](CCCN=C(N)N)C(N)=O)NC(=O)[C@H](CO)NC1=O
EC50 [1]: 137 nM

CC[C@H](C)[C@@H]1NC(=O)[C@@H](CCCN=C(N)N)NC(=O)[C@H](CC(=O)O)NC(=O)[C@@H](CCSC)NC(=O)[C@H](CCCN=C(N)N)NC(=O)CNC(=O)CNC(=O)[C@@H](Cc2ccccc2)NC(=O)[C@H](Cc2c[nH]cn2)NC(=O)[C@@H](NC(=O)[C@@H](N)CCSC)CSSC[C@H](C(=O)N[C@@H](Cc2ccc(O)cc2)C(=O)N[C@@H](CCCN=C(N)N)C(N)=O)NC(=O)[C@@H](CO)NC1=O [MiniANP]
Ratio [2]: 1

CC[C@H](C)[C@@H]1NC(=O)[C@H](CCCN=C(N)N)NC(=O)[C@H](CC(=O)O)NC(=O)[C@H](CCSC)NC(=O)[C@@H]2C[C@H](CCN=C(N)N)CN2C(=O)CNC(=O)CNC(=O)[C@H](Cc2ccccc2)NC(=O)[C@H](Cc2c[nH]cn2)NC(=O)[C@@H](NC(=O)[C@@H](N)CCSC)CSSC[C@@H](C(=O)N[C@@H](Cc2ccc(O)cc2)C(=O)N[C@@H](CCCN=C(N)N)C(N)=O)NC(=O)[C@H](CO)NC1=O (H-MCHFGG[X1]MDRISCYR-NH2; disulfide 2-13)
EC50 [1]: 4.6 nM

CC[C@H](C)[C@@H]1NC(=O)[C@H](CCCN=C(N)N)NC(=O)[C@H](CC(=O)O)NC(=O)[C@H](CCSC)NC(=O)[C@@H]2C[C@@H](CCN=C(N)N)CN2C(=O)CNC(=O)CNC(=O)[C@H](Cc2ccccc2)NC(=O)[C@H](Cc2c[nH]cn2)NC(=O)[C@@H](NC(=O)[C@@H](N)CCSC)CSSC[C@@H](C(=O)N[C@@H](Cc2ccc(O)cc2)C(=O)N[C@@H](CCCN=C(N)N)C(N)=O)NC(=O)[C@H](CO)NC1=O (H-MCHFGG[X2]MDRISCYR-NH2; disulfide 2-13)
EC50 [1]: 1.3 nM

CC[C@H](C)[C@@H]1NC(=O)[C@H](CCCN=C(N)N)NC(=O)[C@H](CC(=O)O)NC(=O)[C@H](CCSC)NC(=O)[C@@H]2CCCN2C(=O)CNC(=O)CNC(=O)[C@H](Cc2ccccc2)NC(=O)[C@H](Cc2c[nH]cn2)NC(=O)[C@@H](NC(=O)[C@@H](N)CCSC)CSSC[C@@H](C(=O)N[C@@H](Cc2ccc(O)cc2)C(=O)N[C@@H](CCCN=C(N)N)C(N)=O)NC(=O)[C@H](CO)NC1=O
EC50 [1]: 58.1 nM

CC[C@H](C)[C@@H]1NC(=O)[C@@H](CCCN=C(N)N)NC(=O)[C@H](CC(=O)O)NC(=O)[C@@H](CCSC)NC(=O)[C@@H]2CCCN2C(=O)CNC(=O)CNC(=O)[C@@H](Cc2ccccc2)NC(=O)[C@H](Cc2c[nH]cn2)NC(=O)[C@@H](NC(=O)[C@@H](N)CCSC)CSSC[C@H](C(=O)N[C@@H](Cc2ccc(O)cc2)C(=O)N[C@@H](CCCN=C(N)N)C(N)=O)NC(=O)[C@@H](CO)NC1=O
Ratio [2]: 18.7

CC[C@H](C)[C@@H]1NC(=O)[C@@H](CCCN=C(N)N)NC(=O)[C@H](CC(=O)O)NC(=O)[C@@H](CCSC)NC(=O)[C@H](C)NC(=O)CNC(=O)CNC(=O)[C@@H](Cc2ccccc2)NC(=O)[C@H](Cc2c[nH]cn2)NC(=O)[C@@H](NC(=O)[C@@H](N)CCSC)CSSC[C@H](C(=O)N[C@@H](Cc2ccc(O)cc2)C(=O)N[C@@H](CCCN=C(N)N)C(N)=O)NC(=O)[C@@H](CO)NC1=O
Ratio [2]: 44.3
